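Briefly, cells in 96-well plates were exposed to five compound concentrations for 48 h, and endpoints were estimated by linear interpolation. Abbreviation: GI50, concentration required for 50% inhibition of growth. TGI: total growth inhibition.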 Some results are limits rather than exact numbers.

Consider 15 compounds from PubChem BioAssay (NCI).

Holding throughout (test): growth of human tumour cells (NCI), 48 h
The subject of assay [1] is SK-OV-3 ovarian.
Assay [2] has as its system NCI-H522 lung.
Assay [3] concerns MDA-MB-435.
For assay [4], the system named is MALME-3M melanoma.
Assay [5] relates to NCI-H226 lung.
Assay [6] concerns ACHN renal.
Assay [7] concerns NCI-H23 lung.
The subject of assay [8] is MOLT-4 leukemia.
In assay [9] the test system is TK-10 renal.
In assay [10] the test system is M14 melanoma.

Consider `COc1cc(OC)c(C(=O)/C=C/c2cccc(C(F)(F)F)c2)c(OC)c1`, for which the GI50 in assay [1] is 3.03 µM; in assay [2], 0.857 µM; in assay [3] it was 1.61 µM; in assay [4], 2.38 µM; in [5], 1.16 µM; in assay [6], 1.46 µM. For the same compound, the GI50 is 1.14 µM in assay [7], 0.873 µM in assay [8], 1.85 µM in assay [9] and 1.06 µM in assay [10]. Besides, the TGI in [1] amounted to 9.37 µM; in assay [2], 1.94 µM; in [3] it was 6.57 µM; in assay [4], 8.3 µM; in assay [5], 3.74 µM; in assay [6] it was 5.17 µM. Besides, the TGI in assay [7] turned out to be 3.48 µM; in [8], 3.75 µM; in [9], 6.01 µM; in assay [10], 2.62 µM.
`CCc1nc(N)nc(N)c1-c1ccc(NC)c([N+](=O)[O-])c1`: the TGI in [1] is over 100 µM; in assay [2] it was over 57.2 µM; in [3], over 100 µM; in assay [4], over 100 µM; in assay [5], over 100 µM; in assay [6] it was over 100 µM. Moreover, the TGI is over 100 µM in [7], over 68.2 µM in [8], over 100 µM in assay [9] and over 100 µM in assay [10].
As to `Cc1cc2ncnn2cc1Nc1ncc2c(n1)n(C1CCOCC1)c(=O)n2C`, the GI50 was 2.15 µM in assay [1]; 3.74 µM in assay [2]; 8.01 µM in assay [3]; 2.49 µM in assay [4]; 7.32 µM in [5]; 9.97 µM in assay [6]. Further, the GI50 in assay [7] was 14.3 µM; in assay [8] it was 6.09 µM; in [10] it was 11.2 µM. Moreover, the TGI is 15.2 µM in assay [1]; over 100 µM in assay [2]; over 100 µM in assay [3]; 29.3 µM in assay [4]; over 100 µM in [5]; over 100 µM in [6]. The TGI in assay [7] was over 100 µM; in assay [8], 52 µM; in [10] it was over 100 µM.
For `COc1ccc(-c2cc(-c3cc(C)cc(Br)c3O)no2)cc1`, the TGI was 30.2 µM in assay [2]; over 100 µM in [3]; 42.4 µM in assay [5]; 24 µM in assay [6]; 99.7 µM in assay [7]; over 100 µM in assay [8]. Also, the TGI in assay [9] was 38.5 µM; in assay [10] it was over 100 µM.
For `COC(=O)Nc1nc2ccc(C3(c4ccc(F)cc4)OCCO3)cc2[nH]1`, the GI50 in [1] is 0.587 µM; in [2], 0.222 µM; in assay [3] it was 0.0436 µM; in [5], 2.15 µM; in [6] it was 0.917 µM; in assay [7], 1.14 µM. The GI50 in [8] is 0.573 µM; in assay [9], 15.7 µM. Further, the TGI in assay [1] was over 100 µM; in assay [2] it was 2.65 µM; in assay [3], 0.238 µM; in [5], over 94 µM; in assay [6], over 66.6 µM; in assay [7] it was over 100 µM. The TGI in [8] and in assay [9] was over 100 µM in each case.
As for `CC12OC(C(=O)C13CC3)C1C(=O)c3ccc4c(ccc5ccccc54)c3C(=O)C12` (stereo not given), the GI50 was 76.4 µM in [1]; 51.3 µM in [2]; 35.2 µM in assay [3]; 14.2 µM in [4]; 24.2 µM in assay [7]; 28.9 µM in assay [8]. Moreover, the results for the GI50 in assay [9] and in [10] were 37.1 µM and 25.2 µM, respectively. Moreover, the TGI in assay [1] is over 100 µM; in [2] it was over 100 µM; in assay [3], over 100 µM; in assay [4] it was 56.6 µM; in assay [7], over 100 µM; in [8], over 100 µM. For the same compound, the TGI is over 100 µM in assay [9] and 95 µM in assay [10].
`O=C1c2cccnc2-c2nc(-c3ccc(Cl)cc3)cc3c2c1nc1ccccc13`: the GI50 in [2] was 21 µM; in assay [3] it was 22.5 µM; in [4], 20.2 µM; in [5], 49.5 µM; in assay [6], 15.9 µM; in assay [8] it was 51.7 µM. The GI50 in assay [9] was 24.6 µM; in assay [10], 19.9 µM. Besides, the TGI in assay [2] was over 100 µM; in [3], 86.4 µM; in assay [4], 91.5 µM; in assay [5], over 100 µM; in assay [6], 33.7 µM; in [8], over 100 µM. The TGI in assay [9] was over 100 µM; in assay [10], 58 µM.
Regarding `COc1c(C(=O)/C=C/c2ccccc2)c(O)cc2occc12`, the GI50 in assay [1] was 14.1 µM; in assay [2], 4.29 µM; in assay [3], 3.21 µM; in assay [5], 6.03 µM; in assay [6], 4.51 µM; in [7], 6.12 µM. For the same compound, the GI50 in [8] was 3.36 µM; in [9], 11.2 µM; in assay [10] it was 8.89 µM. Moreover, the TGI in assay [1] was 36.4 µM; in assay [2], 15.7 µM; in [3], 13.2 µM; in assay [5], 20.8 µM; in assay [6] it was 19.9 µM; in assay [7], 20.8 µM. Besides, the TGI was over 100 µM in assay [8], 24.8 µM in [9] and 25.7 µM in [10].
For `S=c1ssc(N2CCOCC2)c1Cl`, the GI50 in [1] was 28.1 µM; in assay [2] it was 20.4 µM; in [3], 25 µM; in [5], over 100 µM; in assay [6], 78.5 µM; in assay [7], 29.1 µM. For the same compound, the GI50 in assay [8] is 31.8 µM; in [9] it was 16 µM; in assay [10], over 100 µM. Further, the TGI was over 100 µM in assay [1]; 55.4 µM in assay [2]; 73.7 µM in assay [3]; over 100 µM in [5]; over 100 µM in assay [6]; over 100 µM in assay [7]. Moreover, the TGI in assay [8], in [9] and in [10] was over 100 µM throughout.
For the compound `OCC1OC(n2cnc3c2NC=NC[C@H]3O)C(Cl)C1O` (stereo not given in full), the TGI in assay [2], in [3], in [4], in [6], in [7] and in assay [8] was over 100 µM throughout. The TGI in assay [9] and in assay [10] was over 100 µM in each case.
For the compound `Nc1ccccc1/C(O)=C1/CCOC1=O`, the TGI in assay [1], in assay [2], in assay [4], in assay [5], in [6] and in [7] was over 100 µM throughout. In addition, the TGI in [8], in [9] and in assay [10] was over 100 µM throughout.
As to `COc1ccc(CN2CC(C)(C)C2=O)c(OC)c1`, the TGI in [1], in assay [2], in assay [4], in assay [5], in assay [6] and in assay [7] was over 100 µM each time. Besides, the TGI in [8], in assay [9] and in assay [10] was over 100 µM throughout.
Regarding `COc1cc2ncnc(-n3ncc4cc(NC(=O)Nc5ccccc5)ccc43)c2cc1OC`, the GI50 was 0.42 µM in assay [1]; 1.4 µM in assay [3]; 1.07 µM in assay [5]; 1.63 µM in assay [6]; 1.3 µM in assay [7]; 0.86 µM in [8]. For the same compound, the GI50 in [9] is 0.724 µM; in [10] it was 1.1 µM. Besides, the TGI in [1] came out at 4.6 µM; in assay [3] it was 33.9 µM; in assay [5], 4.06 µM; in [6] it was 11.1 µM; in [7], 4.4 µM; in [8], 3.56 µM. The TGI in assay [9] was 2.56 µM; in assay [10] it was 4.22 µM.
On to `CCOC(=O)C1SC(=Nc2ccc(C)c(C)c2)N=C1C` (stereo not given), for which the TGI in assay [1], in assay [2], in assay [4], in assay [5], in assay [6] and in [7] was over 100 µM in each case. Moreover, the TGI in [8], in assay [9] and in assay [10] was over 100 µM each time.
With `CN(C)CCC1(C2=CCCC2)CC/C(=C\c2ccc(Cl)cc2)C1=O` (stereo not given), the TGI in assay [1] is 19.6 µM; in assay [2], 18.8 µM; in assay [4], 15.4 µM; in assay [5] it was 28.1 µM; in assay [6], 23.8 µM; in [7] it was 29.3 µM. Also, the values for the TGI in [8], in [9] and in [10] were 6.02 µM, 23.3 µM and 3.84 µM, respectively.
